Here are results for 5 molecules from patent US9023789B2, “Amylin analogs and pharmaceutical compositions thereof” (Novo Nordisk A/S, priority 2012, dated 2015).

Numbered stars: 1 amine (or outer) side, 2 acyl side, 3 side chain; on linkers, the order of the positions; unused ones are H or OH. Bridge positions count the residues as written; N and C are the ends. Side chains are listed from the residue outwards. Peptide text beside a SMILES is read from it. * marks the point of attachment. C20 diacid = O=C(O)CCCCCCCCCCCCCCCCCCC(=O)*; γGlu = O=C(O)[C@H](CCC(=O)[*:2])N[*:1]

Data set [1] deals with T1, rat amylin receptor (rat calcitonin receptor + rat RAMP 3) (Rattus norvegicus, UniProt P32214+Q9JJ73).
T1 construct: expressed in transfected cells; host or cells: BHK tk'ts 13 (transient, FuGENE 6), membranes
T1 sequence (P32214 25-479 isoform P32214-2 limits assumed): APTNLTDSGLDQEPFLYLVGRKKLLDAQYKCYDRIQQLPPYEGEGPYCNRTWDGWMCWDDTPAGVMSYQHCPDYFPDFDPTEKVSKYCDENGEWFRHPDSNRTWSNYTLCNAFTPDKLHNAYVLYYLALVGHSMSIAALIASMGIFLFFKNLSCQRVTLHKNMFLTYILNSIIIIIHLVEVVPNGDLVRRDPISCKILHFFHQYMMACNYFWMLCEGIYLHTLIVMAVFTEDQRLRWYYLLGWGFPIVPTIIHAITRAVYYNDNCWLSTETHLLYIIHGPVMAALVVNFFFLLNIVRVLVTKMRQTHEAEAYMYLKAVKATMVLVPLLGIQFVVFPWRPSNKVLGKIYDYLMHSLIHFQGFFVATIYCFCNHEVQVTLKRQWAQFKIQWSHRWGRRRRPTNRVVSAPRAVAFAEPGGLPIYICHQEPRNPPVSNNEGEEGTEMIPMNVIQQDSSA
T1 sequence (Q9JJ73 23-147 partner): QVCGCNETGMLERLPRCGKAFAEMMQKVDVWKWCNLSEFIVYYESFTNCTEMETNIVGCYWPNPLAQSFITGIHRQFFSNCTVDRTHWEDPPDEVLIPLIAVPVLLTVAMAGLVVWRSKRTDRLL
In words: ASSAY (VI) binding to the rat amylin receptor. The note with it: for IC50: binding to rat amylin receptor, read-out: rAmylin-R bind IC50. In a few lines:
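Membranes for this rat amylin receptor binding assay came from BHK tk′ts 13 cells. The cells were transiently transfected with rat calcitonin receptor using the FuGENE® 6 reagent from Roche, as the manufacturer recommends. The cells were collected approximately 48 hours after transfection, and membranes were then prepared.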

Data set [2] in a line: ASSAY (III) ThT fibrillation assay for physical stability. The data set is classed as physicochemical. The method, boiled down: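 Physical stability scored by ThT fluorescence (444 nm excitation, 485 nm emission) tracked every 20 min during 37 °C incubation with 960 rpm shaking, ThT at 1 μM final. Values are replicate means with SD at chosen times; HPLC against pramlintide standard gives initial and post-assay soluble concentrations.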

Where [3] appears, read: Table 7, rat binding selectivity, rCTR IC50 / rAmylin-R IC50.
Where [4] appears, read: Table 7a (preferred compounds), rat binding selectivity, rCTR IC50 / rAmylin-R IC50.
[5] abbreviates: ratio of rCTR bind IC50 to rAmylin-R bind IC50.

As for `CC[C@H](C)[C@H](NC(=O)[C@H](C)NC(=O)CNC(=O)[C@H](Cc1ccccc1)NC(=O)[C@H](CC(N)=O)NC(=O)[C@@H]1CCCN1C(=O)[C@H](CO)NC(=O)[C@H](CO)NC(=O)[C@H](Cc1c[nH]cn1)NC(=O)[C@H](CCCNC(=N)N)NC(=O)[C@H](CC(C)C)NC(=O)[C@H](Cc1ccccc1)NC(=O)[C@H](CCC(=O)O)NC(=O)[C@H](C)NC(=O)[C@H](CC(C)C)NC(=O)[C@H](CCCNC(=N)N)NC(=O)[C@H](CCC(N)=O)NC(=O)[C@@H](NC(=O)[C@H](C)NC(=O)[C@@H]1CSSC[C@H](NC(=O)[C@@H](N)CCCCNC(=O)CC[C@H](NC(=O)CCCCCCCCCCCCCCCCCCC(=O)O)C(=O)O)C(=O)N[C@@H](CC(N)=O)C(=O)N[C@@H]([C@@H](C)O)C(=O)N[C@@H](C)C(=O)N[C@@H]([C@@H](C)O)C(=O)N1)[C@@H](C)O)C(=O)N1CCC[C@H]1C(=O)N[C@@H](CO)C(=O)N[C@@H](CO)C(=O)N[C@H](C(=O)N[C@@H](CC(N)=O)C(=O)N[C@H](C(=O)NCC(=O)N[C@@H](Cc1c[nH]cn1)C(=O)N[C@@H](CCC(=O)O)C(=O)N[C@H](C(=O)N[C@@H](Cc1ccc(O)cc1)C(N)=O)[C@@H](C)O)C(C)C)[C@@H](C)O` [Example 107] (H-K([γGlu-C20 diacid])CNTATCATQRLAEFLRHSSPNFGAIPSSTNVGHETY-NH2; disulfide 2-7 (inferred)), in data set [1] (Table 7), the IC50 (usually the midpoint of a concentration-inhibition curve) worked out at 0.958 nM. Besides, the “Ratio rCT/rAmylin binding” value in data set [1] (setting [3]), in data set [1] (setting [4]) and in data set [1] (setting [5]) was 34.6 in each case. Also, the “ThT pH 4.0 lag time (h)” value in data set [2] is listed as 45 h.

With `CC[C@H](C)[C@H](NC(=O)[C@H](C)NC(=O)CNC(=O)[C@H](Cc1ccccc1)NC(=O)[C@H](CC(N)=O)NC(=O)[C@@H]1CCCN1C(=O)[C@H](CO)NC(=O)[C@H](CO)NC(=O)[C@H](Cc1c[nH]cn1)NC(=O)[C@H](CCCNC(=N)N)NC(=O)[C@H](CC(C)C)NC(=O)[C@H](Cc1ccccc1)NC(=O)[C@H](CCC(=O)O)NC(=O)[C@H](C)NC(=O)[C@H](CC(C)C)NC(=O)[C@H](CCCNC(=N)N)NC(=O)[C@H](CCC(N)=O)NC(=O)[C@@H](NC(=O)[C@H](C)NC(=O)[C@@H]1CSSC[C@H](NC(=O)[C@@H](N)CCCCNC(=O)CC[C@H](NC(=O)CC[C@H](NC(=O)CCCCCCCCCCCCCCCCCCC(=O)O)C(=O)O)C(=O)O)C(=O)N[C@@H](CC(N)=O)C(=O)N[C@@H]([C@@H](C)O)C(=O)N[C@@H](C)C(=O)N[C@@H]([C@@H](C)O)C(=O)N1)[C@@H](C)O)C(=O)N1CCC[C@H]1C(=O)N[C@@H](CO)C(=O)N[C@@H](CO)C(=O)N[C@H](C(=O)N[C@@H](CC(N)=O)C(=O)N[C@H](C(=O)NCC(=O)N[C@@H](Cc1c[nH]cn1)C(=O)N[C@@H](CCC(=O)O)C(=O)N[C@H](C(=O)N[C@@H](Cc1ccc(O)cc1)C(N)=O)[C@@H](C)O)C(C)C)[C@@H](C)O` [Example 104] (H-K([γGlu-γGlu-C20 diacid])CNTATCATQRLAEFLRHSSPNFGAIPSSTNVGHETY-NH2; disulfide 2-7; N-terminus assumed), the concentration for half-maximal inhibition (IC50) in data set [1] (Table 7) worked out at 3.14 nM. Also, the “Ratio rCT/rAmylin binding” value in data set [1] (setting [3]), in data set [1] (setting [4]) and in data set [1] (setting [5]) was 158.8 throughout. Besides, the “ThT pH 4.0 lag time (h)” value in data set [2] is 45 h.

Turning to `CC[C@H](C)[C@H](NC(=O)[C@H](C)NC(=O)CNC(=O)[C@H](Cc1ccccc1)NC(=O)[C@H](CC(N)=O)NC(=O)[C@@H]1CCCN1C(=O)[C@H](CO)NC(=O)[C@H](CO)NC(=O)[C@H](Cc1c[nH]cn1)NC(=O)[C@H](CCCNC(=N)N)NC(=O)[C@H](CC(C)C)NC(=O)[C@H](Cc1ccccc1)NC(=O)[C@H](CCC(=O)O)NC(=O)[C@H](C)NC(=O)[C@H](CC(C)C)NC(=O)[C@H](CCCNC(=N)N)NC(=O)[C@H](CCC(N)=O)NC(=O)[C@@H](NC(=O)[C@H](C)NC(=O)[C@@H]1CSSC[C@H](NC(=O)[C@H](CCCCN)NC(=O)CC[C@H](NC(=O)CCCCCCCCCCCCCCCCCCC(=O)O)C(=O)O)C(=O)N[C@@H](CC(N)=O)C(=O)N[C@@H]([C@@H](C)O)C(=O)N[C@@H](C)C(=O)N[C@@H]([C@@H](C)O)C(=O)N1)[C@@H](C)O)C(=O)N1CCC[C@H]1C(=O)N[C@@H](CO)C(=O)N[C@@H](CO)C(=O)N[C@H](C(=O)N[C@@H](CC(N)=O)C(=O)N[C@H](C(=O)NCC(=O)N[C@@H](CO)C(=O)N[C@@H](Cc1c[nH]cn1)C(=O)N[C@H](C(=O)N[C@@H](Cc1ccc(O)cc1)C(N)=O)[C@@H](C)O)C(C)C)[C@@H](C)O` [Example 18] ({C20 diacid-γGlu}-KCNTATCATQRLAEFLRHSSPNFGAIPSSTNVGSHTY-NH2; disulfide 2-7), the IC50 in data set [1] (Table 7) turned out to be 0.476 nM. Also, the “Ratio rCT/rAmylin binding” value in data set [1] (setting [3]) and in data set [1] (setting [4]) was 27.3 each time. In addition, the “ThT pH 4.0 lag time (h)” value in data set [2] stood at 45 h.

With `CC[C@H](C)[C@H](NC(=O)[C@H](C)NC(=O)CNC(=O)[C@H](Cc1ccccc1)NC(=O)[C@H](CC(N)=O)NC(=O)[C@@H]1CCCN1C(=O)[C@H](CO)NC(=O)[C@H](CO)NC(=O)[C@H](Cc1c[nH]cn1)NC(=O)[C@H](CCCNC(=N)N)NC(=O)[C@H](CC(C)C)NC(=O)[C@H](Cc1ccccc1)NC(=O)[C@H](CCC(=O)O)NC(=O)[C@H](C)NC(=O)[C@H](CC(C)C)NC(=O)[C@H](CCCNC(=N)N)NC(=O)[C@H](CCC(N)=O)NC(=O)[C@@H](NC(=O)[C@H](C)NC(=O)[C@@H]1CSSC[C@H](NC(=O)[C@@H](N)CCCCNC(=O)CC[C@H](NC(=O)CC[C@H](NC(=O)CCCCCCCCCCCCCCCCCCC(=O)O)C(=O)O)C(=O)O)C(=O)N[C@@H](CC(N)=O)C(=O)N[C@@H]([C@@H](C)O)C(=O)N[C@@H](C)C(=O)N[C@@H]([C@@H](C)O)C(=O)N1)[C@@H](C)O)C(=O)N1CCC[C@H]1C(=O)N[C@@H](CO)C(=O)N[C@@H](CO)C(=O)N[C@H](C(=O)N[C@@H](CC(N)=O)C(=O)N[C@H](C(=O)NCC(=O)N1CCC[C@H]1C(=O)N[C@@H](CCC(=O)O)C(=O)N[C@H](C(=O)N[C@@H](Cc1ccc(O)cc1)C(N)=O)[C@@H](C)O)C(C)C)[C@@H](C)O` [Example 106] (H-K([γGlu-γGlu-C20 diacid])CNTATCATQRLAEFLRHSSPNFGAIPSSTNVGPETY-NH2; disulfide 2-7; N-terminus assumed), the IC50 in data set [1] (Table 7) amounted to 0.182 nM. For the same molecule, the “Ratio rCT/rAmylin binding” value in data set [1] (setting [3]), in data set [1] (setting [4]) and in data set [1] (setting [5]) was 88.5 each time. In addition, in data set [2], the “ThT pH 4.0 lag time (h)” value came to 33 h.

Consider `CC[C@H](C)[C@H](NC(=O)[C@H](C)NC(=O)CNC(=O)[C@H](Cc1ccccc1)NC(=O)[C@H](CC(N)=O)NC(=O)[C@@H]1CCCN1C(=O)[C@H](CO)NC(=O)[C@H](CO)NC(=O)[C@H](Cc1c[nH]cn1)NC(=O)[C@H](CCCNC(=N)N)NC(=O)[C@H](CC(C)C)NC(=O)[C@H](Cc1ccccc1)NC(=O)[C@H](CC(N)=O)NC(=O)[C@H](C)NC(=O)[C@H](CC(C)C)NC(=O)[C@H](CCCNC(=N)N)NC(=O)[C@H](CCC(N)=O)NC(=O)[C@@H](NC(=O)[C@H](C)NC(=O)[C@@H]1CSSC[C@H](NC(=O)[C@H](CCCCN)NC(=O)CC[C@H](NC(=O)CCCCCCCCCCCCCCCCCCC(=O)O)C(=O)O)C(=O)N[C@@H](CC(N)=O)C(=O)N[C@@H]([C@@H](C)O)C(=O)N[C@@H](C)C(=O)N[C@@H]([C@@H](C)O)C(=O)N1)[C@@H](C)O)C(=O)N1CCC[C@H]1C(=O)N[C@@H](CO)C(=O)N[C@@H](CO)C(=O)N[C@H](C(=O)N[C@@H](CC(N)=O)C(=O)N[C@H](C(=O)NCC(=O)N[C@@H](CO)C(=O)N[C@@H](CCC(=O)O)C(=O)N[C@H](C(=O)N[C@@H](Cc1ccc(O)cc1)C(N)=O)[C@@H](C)O)C(C)C)[C@@H](C)O` [Example 23], for which the IC50 in data set [1] (Table 7) was 1.12 nM. In addition, the “Ratio rCT/rAmylin binding” value in data set [1] (setting [3]), in data set [1] (setting [4]) and in data set [1] (setting [5]) was 71.3 in each case. For the same molecule, the “ThT pH 4.0 lag time (h)” value in data set [2] amounted to 3 h.
